For orientation: Ki means the dissociation constant of the complex between target and ligand, obtained from inhibition or displacement.

The source of these data is US20080287490A1, “Bis-pyridino containing compounds for the use in the treatment of CNS pathologies” (UNIVERSITY OF KENTUCKY RESEARCH FOUNDATION, priority 2005, published 2008).

Where two headings read alike, the source gives them in different places.

The subject of experiment [1] is nAChR mediating nicotine-evoked [^3H]DA release (α3β2* receptor subtype). It counts as cell-based, rat. The note with it: read-out: IC50, S-(−)-nicotine-evoked [^3H]DA release. The protocol:
Slices were rinsed with 15 mL of fresh buffer and incubated for an additional 30 minutes in fresh buffer containing 0.1 μM [^3H]DA (6 slices/3 ml). Subsequently, slices were rinsed with 15 ml of fresh buffer and transferred to a glass superfusion chamber.
Radioactivity in the superfusate and tissue samples was determined by liquid scintillation spectroscopy. […] Basal [^3H]outflow was calculated from the average of the tritium collected in the two five minute samples just before addition of the bis-alkyl pyridino analog. […] [^3H]Overflow was calculated by subtracting the [^3H]outflow during an equivalent period of prestimulation from the values in samples collected during and after drug exposure. Inasmuch as the radiolabelled compounds were not separated and identified, the tritium collected in superfusate is referred to as either [^3H]outflow or [^3H]overflow, rather than as [^3H]DA.

In experiment [2] the target is T1, α7-type neuronal nicotinic acetylcholine receptors (Rattus norvegicus, UniProt Q05941).
T1 construct: Rat brain was dissected into the whole brain tissue without cortex, striatum and cerebellum; from tissue; host or cells: rat brain (without cortex, striatum, cerebellum) membranes
Put plainly: biochemical. The following applies: rat brain membranes, 2.5 nM [^3H]-MLA; read-out: Ki, [^3H]MLA binding.

Experiment [3] concerns nAChR subtypes mediating nicotine-evoked [^3H]-dopamine overflow.
Protocol: [^3H]-Dopamine overflow from superfused striatal slices. […] Striatal coronal slices (500 μm, 4-6 mg) were obtained and incubated for 30 minutes in Krebs' buffer (in mM: 118 NaCl, 4.7 KCl, 1.2 MgCl2, 1 NaH2PO4, 1.3 CaCl2, 11.1 glucose, 25 NaHCO3, 0.11 L-ascorbic acid and 0.004 disodium EDTA, pH 7.4, saturated with 95% O2/5% CO2) in a metabolic shaker at 34° C. Slices were incubated with 0.1 μM (final concentration) of [^3H]-dopamine during the latter 30 minutes of the 60-minute incubation period. Each slice was transferred to a glass superfusion chamber maintained at 34° C. and superfused (1 ml/min) with Krebs' buffer containing nomifensine (10 μM) and pargyline (10 μM) to inhibit [^3H]-dopamine reuptake after release into the extracellular space, ensuring that [^3H]-overflow primarily represented [^3H]-dopamine. Sample collection (5-minute; 5 mL) began after 60 minutes of superfusion. […] At the end of the experiment, each slice was solubilized, and the [^3H]-content of the tissue determined. Release during each minute was normalized for total tissue [^3H]-content. Analog-induced intrinsic activity and inhibitory activity were determined using slices from the same rat (repeated-measures design).
The amount of [^3H] in each sample was calculated by dividing the total [^3H] collected in each sample by the total in the tissue at the time of sample collection (defined as fractional release). […] Data were analyzed by weighted, least squares regression analysis of the sigmoidal concentration-effect curves to obtain EC50 and IC50 values.
Striatal slices (500 μm, 4-6 mg) were incubated for 30 minutes in Krebs' buffer (in mM: 118 NaCl, 4.7 KCl, 1.2 MgCl2, 1 NaH2PO4, 1.3 CaCl2, 11.1 glucose, 25 NaHCO3, 0.11 L-ascorbic acid and 0.004 disodium EDTA, pH 7.4, saturated with 95% O2/5% CO2) in a metabolic shaker at 34° C. Slices were incubated with 0.1 μM (final concentration) [^3H]DA during the latter 30 minutes of the 60-minute incubation period. Each slice was transferred to a glass superfusion chamber maintained at 34° C. and superfused (1 ml/min) with Krebs' buffer containing nomifensine (10 μM) and pargyline (10 μM) to inhibit [^3H]DA reuptake and metabolism, respectively, after release into the extracellular space, ensuring that [^3H]overflow primarily represents [^3H]DA. Sample collection (5-minute; 5 ml) began after 60 minutes of superfusion. […] Thus, the ability of these analogs to elicit intrinsic activity (evoke [^3H]DA overflow) was determined. At the end of the experiment, each slice was solubilized and [^3H]content of the tissue determined. Release during each minute was normalized for total [^3H]content of the slice. Analog-induced intrinsic activity and inhibitory activity were determined using slices from the same rat (repeated-measures design).
Fractional release was calculated by dividing the total tritium collected in each sample by the total tritium in the tissue at the time of sample collection. […] Typically, data were analyzed by weighted, least squares regression analysis of sigmoidal concentration-effect curves to obtain EC50 and IC50 values.
The target of experiment [4] is α4β2* nAChRs (Rattus norvegicus, UniProt P09483+P12390).
Protocol: Whole brain, excluding cortex and cerebellum, was homogenized in 20 ml of ice-cold buffer, containing (in mM): 2 HEPES, 11.8 NaCl, 0.48 KCl, 0.25 CaCl2 and 0.12 MgSO4, pH 7.5. Homogenate was centrifuged (25,000 g, 15 minutes, 4° C.). Pellets were resuspended in 20 ml of buffer and incubated at 37° C., for ten minutes, cooled to 4° C. and centrifuged (25,000 g, 15 minutes, 4° C.). Pellets were resuspended and centrifuged using the same conditions. Final pellets were stored in assay buffer, containing (in mM): 20 HEPES, 118 NaCl, 4.8 KCl, 2.5 CaCl2, and 1.2 MgSO4) pH 7.5 at −70° C. Upon use, final pellets were resuspended in ˜20 ml assay buffer. […] Control was in the absence of analog. […] Incubations proceeded for 60 minutes at room temperature using 96-well plates and were terminated by harvesting on Unifilter-96 GF/B filter plates presoaked in 0.5% polyethylenimine, using a Packard FilterMate harvester.
After washing five times with 350 μl ice-cold assay buffer, filter plates were dried (60 minutes, 49° C.), bottom-sealed, and filled with Packard's MicroScint 20 cocktail (40 μl/well). After 60 minutes, filter plates were top-sealed, and radioactivity determined using a Packard TopCount. Protein concentrations were determined using bovine serum albumin as the standard.
Whole brain was homogenized in 20 ml of ice-cold buffer (in mM: 2 HEPES, 11.8 NaCl, 0.48 KCl, 0.25 CaCl2, and 0.12 MgSO4, pH 7.5). Homogenates were centrifuged (25,000 g, 15 minutes, 4° C.). Pellets were resuspended in 20 ml of buffer and incubated at 37° C., for 10 minutes, cooled to 4° C. and centrifuged (25,000 g, 15 minutes, 4° C.). Pellets were resuspended and centrifuged again using the same conditions. Final pellets were stored at −70° C. in assay buffer (in mM: 20 HEPES, 118 NaCl, 4.8 KCl, 2.5 CaCl2, and 1.2 MgSO4, pH 7.5). Upon use, final pellets were resuspended in ˜20 ml assay buffer. […] Control was in the absence of analog. […] Incubation proceeded for 60 minutes at room temperature using 96-well plates and was terminated by harvesting on Unifilter-96 GF/B filter plates, presoaked in 0.5% polyethylenimine, using a Packard FiterMate harvester. After washing 5× with 350 μl ice-cold assay buffer, filter plates were dried (60 minutes, 49° C.), bottom-sealed, and filled with Packard's MicroScint 20 cocktail (40 μl/well). After 60 minutes, filter plates were top-sealed, and radioactivity determined. Protein concentration was determined using BSA as the standard.
Experiment [5] concerns the target T2, Rat Striatal Nicotinic Acetylcholine Receptors ([^3H]nicotine binding sites) (Rattus norvegicus, UniProt P09483+P12390).
T2 construct: Striata from two rats were dissected, pooled, and homogenized; from tissue; host or cells: rat striatum membranes
Put plainly: biochemical. The note with it: read-out: Ki, specific binding of [^3H]-nicotine. The protocol:
Striata from two rats were dissected, pooled, and homogenized with a Tekmar polytron in 10 volumes of ice-cold modified Krebs-HEPES buffer (20 mM HEPES, 118 mM NaCl, 4.8 mM KCl, 2.5 mM CaCl2, 1.2 mM MgSO4, adjusted to pH 7.5). The homogenates were incubated at 37° C. for five minutes and centrifuged at 15,000 g for 20 minutes. The pellet was resuspended in ten volumes of ice-cold MilliQ water, incubated for five minutes at 37° C., and centrifuged at 15,000 g for 20 minutes The second pellet was then resuspended in ten volumes of fresh ice-cold 10% Krebs-HEPES buffer, incubated at 37° C., and centrifuged at 15,000 g for 20 minutes. The latter sequence of resuspension, incubation, and centrifugation was repeated. The pellet was frozen under fresh 10% Krebs-HEPES buffer and stored at −40° C. until assay. Upon assay, the pellet was resuspended in the Krebs-HEPES buffer, incubated at 37° C. for five minutes, and centrifuged at 15,000 g for 20 minutes. The final pellet was resuspended in 3.6 ml ice-cold MilliQ water which provided for approximately 200 μg protein per 100 μl aliquot. Competition assays were performed in duplicate in a final volume of 200 μl Krebs-HEPES buffer containing […] Tris buffer (pH 7.5 at 4° C.). […] After a 90 minute incubation at 4° C., reactions were terminated by dilution of the samples with 3 ml of ice-cold Krebs-HEPES buffer followed immediately by filtration through Whatman GF/B glass fiber filters (presoaked in 0.5% polyethyleneimine) using a Brandel Cell Harvester. Filters were rinsed three times with 3 ml of ice-cold Krebs-HEPES buffer, transferred to scintillation vials, and 5 ml scintillation cocktail (Research Products International Corp., Mt. Prospect, Ill.) added. […] Binding parameters were determined using the weighted, least squares non-linear regression.

[6] abbreviates: rat striatal slices, nicotine 10 μM.
Setting [7] is: read-out: Nicotine-evoked [^3H]DA Overflow IC50, Table 6, mean (standard error).
The mark [8] stands for this setting: read-out: Nicotine-evoked [^3H]DA Overflow IC50, Table 5, mean (95% confidence interval).
The mark [9] stands for this setting: rat striatal membranes, 3 nM [^3H]-nicotine.

T1 sequence (Q05941 23-502): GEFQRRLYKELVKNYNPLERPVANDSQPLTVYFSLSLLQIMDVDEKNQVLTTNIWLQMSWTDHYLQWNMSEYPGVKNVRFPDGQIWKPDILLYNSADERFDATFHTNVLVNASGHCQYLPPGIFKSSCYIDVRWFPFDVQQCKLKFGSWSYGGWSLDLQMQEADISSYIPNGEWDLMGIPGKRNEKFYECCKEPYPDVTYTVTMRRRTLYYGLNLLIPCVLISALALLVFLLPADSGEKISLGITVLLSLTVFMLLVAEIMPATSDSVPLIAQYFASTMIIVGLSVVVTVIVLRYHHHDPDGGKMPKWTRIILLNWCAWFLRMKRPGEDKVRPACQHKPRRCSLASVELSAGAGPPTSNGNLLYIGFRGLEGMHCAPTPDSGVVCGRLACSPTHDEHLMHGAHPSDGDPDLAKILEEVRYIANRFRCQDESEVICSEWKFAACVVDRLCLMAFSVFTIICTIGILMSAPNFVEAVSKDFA
T2 sequence (P09483 31-630): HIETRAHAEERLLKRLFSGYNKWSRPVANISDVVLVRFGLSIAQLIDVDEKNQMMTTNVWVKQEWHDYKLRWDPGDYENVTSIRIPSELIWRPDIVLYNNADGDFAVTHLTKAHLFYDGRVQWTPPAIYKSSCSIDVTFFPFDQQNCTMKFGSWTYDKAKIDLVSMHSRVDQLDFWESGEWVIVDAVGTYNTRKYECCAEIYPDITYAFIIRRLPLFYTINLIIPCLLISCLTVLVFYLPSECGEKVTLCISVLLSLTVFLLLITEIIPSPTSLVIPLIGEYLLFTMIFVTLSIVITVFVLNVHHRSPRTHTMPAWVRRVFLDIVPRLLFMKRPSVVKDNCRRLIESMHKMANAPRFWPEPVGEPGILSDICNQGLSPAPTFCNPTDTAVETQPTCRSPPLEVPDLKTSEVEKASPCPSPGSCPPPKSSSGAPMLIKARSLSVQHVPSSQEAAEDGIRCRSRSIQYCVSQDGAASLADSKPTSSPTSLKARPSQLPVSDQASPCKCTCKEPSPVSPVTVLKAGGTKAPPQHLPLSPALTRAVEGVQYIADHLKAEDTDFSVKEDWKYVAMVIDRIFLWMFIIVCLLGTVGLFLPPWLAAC
T2 sequence (P12390 25-500): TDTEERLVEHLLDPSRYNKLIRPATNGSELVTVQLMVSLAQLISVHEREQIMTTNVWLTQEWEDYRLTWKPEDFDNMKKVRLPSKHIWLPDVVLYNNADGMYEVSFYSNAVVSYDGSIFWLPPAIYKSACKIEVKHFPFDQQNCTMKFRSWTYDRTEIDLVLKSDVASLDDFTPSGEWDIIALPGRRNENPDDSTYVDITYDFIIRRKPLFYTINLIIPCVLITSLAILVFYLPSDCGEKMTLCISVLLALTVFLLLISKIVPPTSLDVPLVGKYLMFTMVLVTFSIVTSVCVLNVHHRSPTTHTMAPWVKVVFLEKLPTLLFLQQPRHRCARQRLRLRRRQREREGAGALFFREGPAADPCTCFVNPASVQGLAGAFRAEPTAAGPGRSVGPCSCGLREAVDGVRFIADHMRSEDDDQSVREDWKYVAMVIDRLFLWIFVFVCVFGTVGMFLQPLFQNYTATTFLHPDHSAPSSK
α4β2* nAChRs, sequence (P09483 31-630): as the sequence (P09483 31-630) above
α4β2* nAChRs, sequence (P12390 25-500): as the sequence (P12390 25-500) above

`c1ccc2c(c1)ccc[n+]2CCCCCCCC[n+]1cccc2ccccc21` [bQOI, N,N′-Octane-1,8-diyl-bis-quinolinium Diiodide]: in experiment [1] (setting [6]), the IC50 came to 10.7 µM. For the same molecule, the Ki in experiment [2] stood at 2.01 µM. Regarding `CCCCCCCCCCCC[n+]1ccc2c(c1)[C@@H]1[C@H](CC2)CCN1C` [ACDD], the IC50 in experiment [3] (setting [7]) turned out to be 0.22 µM. With `CCCCCCCCCCCCCCC[n+]1ccccc1` [NPDPB], the Ki in experiment [4] (read-out: [^3H]Nicotine Binding Ki, Table 5, mean (95% confidence interval)) stood at 38 µM. Further, the IC50 in experiment [3] (setting [8]) stood at 0.32 µM. Consider `CN1CCC[C@H]1c1ccc[n+](CCCCCCCC[n+]2cccc([C@@H]3CCCN3C)c2)c1` [bNOI, N,N′-Octane-1,8-diyl-bis-nicotinium Diiodide], for which the Ki in experiment [5] (setting [9]) came out at 1.5 µM. Also, the IC50 in experiment [1] (setting [6]) is 19.1 µM. Regarding `c1ccc2c(c1)ccc[n+]2CCCCCCCCCCC[n+]1cccc2ccccc21` [bQUB, N,N′-Undecane-1,11-diyl-bis-quinolinium Dibromide], the Ki in experiment [5] (setting [9]) was 38.3 µM; in experiment [2], 2.44 µM. In addition, in experiment [1] (setting [6]), the IC50 amounted to 12 µM. On to `c1cc[n+](CCCCC[n+]2ccccc2)cc1` [bPPeI, N,N′-Pentane-1,5-diyl-bis-pyridinium Diiodide], for which the inhibition constant Ki in experiment [5] (setting [9]) is greater than 100 µM. In addition, the IC50 in experiment [1] (setting [6]) is greater than 100 µM. Take `CN1CCC[C@H]1c1ccc[n+](CCCCCC[n+]2cccc([C@@H]3CCCN3C)c2)c1` [bNHxI, N,N′-Hexane-1,6-diyl-bis-nicotinium Diiodide]: the IC50 in experiment [1] (setting [6]) was greater than 100 µM. As to `CCCCCCCCCCC[n+]1cccc2c1CCC1CCN(C)C21` (stereo not drawn) [BCU], the IC50 in experiment [3] (setting [7]) came to 0.04 µM. Take `c1cc[n+](CCCCCC[n+]2ccccc2)cc1` [bPHxI, N,N′-Hexane-1,6-diyl-bis-pyridinium Diiodide]: the Ki in experiment [5] (setting [9]) was found to be 97.8 µM. For the same molecule, the IC50 in experiment [1] (setting [6]) is greater than 100 µM.

On to `CCCCCCCCC[n+]1cccc2c1CCC1CCN(C)C21` (stereo not drawn) [BCN], for which the IC50 in experiment [3] (setting [7]) worked out at 0.31 µM. Consider `c1cc[n+](CCCCCCCC[n+]2ccccc2)cc1` [bPOI, N,N′-Octane-1,8-diyl-bis-pyridinium Diiodide], for which the inhibition constant Ki in experiment [5] (setting [9]) came out at 33.9 µM. Further, in experiment [1] (setting [6]), the IC50 was greater than 1 µM.

`c1cc[n+](CCCCCCCCC[n+]2ccccc2)cc1` [bPNB, N,N′-Nonane-1,9-diyl-bis-pyridinium Dibromide]: the inhibition constant (Ki) in experiment [5] (setting [9]) came out at 24.1 µM. In addition, the IC50 in experiment [1] (setting [6]) is greater than 100 µM. Turning to `CCCCCCCCCCCC[n+]1ccccc1` [NDDPI], in experiment [3] (setting [8]), the IC50 came to 0.26 µM. Regarding `CN1CCC[C@H]1c1ccc[n+](CCCCCCCCCCC[n+]2cccc([C@@H]3CCCN3C)c2)c1` [bNUB, N,N′-Undecane-1,11-diyl-bis-nicotinium Dibromide], in experiment [5] (setting [9]), the inhibitory constant (Ki) stood at 0.37 µM. The IC50 in experiment [1] (setting [6]) was greater than 100 µM.

In the case of `CCCCCCCCCCCCCCCCCCCC[n+]1ccccc1` [NEcPB], the IC50 in experiment [3] (setting [8]) was 0.12 µM. In the case of `CCCCCCCC[n+]1cccc(C)c1` [NOPiI], in experiment [3] (read-out: Nicotine-evoked [^3H]DA Overflow IC50, Table 9, mean (standard error)), the IC50 came out at 1 µM. In the case of `CCCCCCCCCCCC[n+]1cccc(C2CCCN2C)c1` (stereo not drawn) [NDDNI], in experiment [4], the Ki worked out at 0.14 µM. Further, the “potency relative to DHβE as inhibitor of nAChRs mediating nicotine-evoked dopamine release” value in experiment [3] is listed as “at least two orders of magnitude more potent”. Moreover, in experiment [3] (read-out: IC50, inhibition of nicotine-evoked [^3H]dopamine release/overflow), the IC50 is 0.009 µM. Take `CN1CCC[C@H]1c1ccc[n+](CCCCCCCCC[n+]2cccc([C@@H]3CCCN3C)c2)c1` [bNNB, N,N′-Nonane-1,9-diyl-bis-nicotinium Dibromide]: the Ki in experiment [5] (setting [9]) was determined as 4.31 µM. Besides, in experiment [1] (setting [6]), the IC50 was greater than 100 µM. Turning to `c1ccc2c[n+](CCCCCCCCCC[n+]3ccc4ccccc4c3)ccc2c1` [bIQDI, N,N′-Decane-1,10-diyl-bis-isoquinolinium Diiodide], the IC50 in experiment [1] (setting [6]) was determined as 2.62 µM. Besides, the Ki in experiment [2] came to 5.5 µM. As to `c1cc[n+](CCCCCCCCCC[n+]2ccccc2)cc1` [bPDI, N,N′-Decane-1,10-diyl-bis-pyridinium Diiodide], the Ki in experiment [5] (setting [9]) was 18.6 µM. Also, the IC50 in experiment [1] (setting [6]) is greater than 1 µM. Take `c1ccc2c(c1)ccc[n+]2CCCCCCCCCC[n+]1cccc2ccccc21` [bQDI, N,N′-Decane-1,10-diyl-bis-quinolinium Diiodide]: the IC50 in experiment [1] (setting [6]) was determined as 8.99 µM. The Ki in experiment [2] was found to be 7.32 µM. As for `CO[C@H]1CC=C2CCN3CCC4=C(CC(=O)OC4)[C@]23C1` [DHβE, dihydro-β-erthyroidine, reference compound], the inhibitory constant (Ki) in experiment [5] turned out to be 0.15 µM. For the same molecule, in experiment [1], the IC50 was found to be 1 µM.
